We go through 24 molecules from ChEMBL document CHEMBL6103624, “Design, Synthesis, and Biological Evaluation of Marchantin C-NO Donor Hybrids for Overcoming Pgp-Mediated Drug Resistance by Targeting Lysosome” (J Med Chem, 2025).

SMILES strings stand for the structures.

In general, IC50 refers to the concentration needed to halve the response being measured.

Data set [1] relates to HepG2. Description: Antiproliferative activity against human HepG2 cells assessed as inhibition of cell growth incubated for 48 hrs by MTT assay. The data set is classed as functional, cell-based. The note with it: HepG2, 48 h. Background: Formazan colour is commonly taken as a measure of viable cells.
For data set [2], the system named is NCI/ADR-RES. Description: Antiproliferative activity against human MCF7ADR cells assessed as inhibition of cell growth incubated for 48 hrs by MTT assay. In kind it is functional, cell-based.
Data set [3] is described as follows: Selectivity index, ratio of IC50 for antiproliferative activity against human A549 cells assessed as inhibition of cell growth to IC50 for antiproliferative activity against human A549/Taxol cells assessed as inhibition of cell growth. The data set is classed as functional.
Data set [4] deals with PC-3. The data set is described as follows: Antiproliferative activity against human PC-3 cells assessed as inhibition of cell growth incubated for 48 hrs by MTT assay. The data set is classed as functional, cell-based. Conditions: PC-3, 48 h.
Data set [5] has as its system A549. Description: Antiproliferative activity against human A549 cells assessed as inhibition of cell growth incubated for 48 hrs by MTT assay. In kind it is functional, cell-based. The note with it: A549, 48 h.
Data set [6] can be described thus: Cytotoxicity against human MCF-10A cells assessed as inhibition of cell growth incubated for 48 hrs by MTT assay. In kind it is toxicity, cell-based.
Data set [7] in a line: Selectivity index, ratio of IC50 for antiproliferative activity against human MCF7 cells assessed as inhibition of cell growth to IC50 for antiproliferative activity against human MCF7ADR cells assessed as inhibition of cell growth. In kind it is functional.
Data set [8] deals with A549/TR. The data set is described as follows: Antiproliferative activity against human A549/Taxol cells assessed as inhibition of cell growth incubated for 48 hrs by MTT assay. In kind it is functional, cell-based.
A short description of data set [9]: Cytotoxicity against human BEAS-2B cells assessed as inhibition of cell growth incubated for 48 hrs by MTT assay. In kind it is toxicity, cell-based.
For data set [10], the system named is MCF7. Description: Antiproliferative activity against human MCF7 cells assessed as inhibition of cell growth incubated for 48 hrs by MTT assay. The data set is classed as functional, cell-based. Conditions: MCF7, 48 h.

Take `O=S(=O)(c1ccccc1)c1c(OCCOCCOc2cccc3c2Oc2cccc(c2)CCc2ccc(O)c(c2)Oc2ccc(cc2)CC3)no[n+]1[O-]`: the IC50 in data set [1] was more than 20 µM; in [2], 1.01 µM; in [4], 4.41 µM; in data set [5] it was more than 40 µM; in [8], 12.1 µM; in data set [10] it was 15.2 µM. Also, the “Ratio IC50” value in data set [3] was more than 3; in [7] it was 15. Besides, the IC50 at 48 h in [6] was less than 2.5 µM; in [9] it was 5.14 µM.

Turning to `O=C(CCCCCOc1no[n+]([O-])c1S(=O)(=O)c1ccccc1)Oc1cccc2c1Oc1cccc(c1)CCc1ccc(O)c(c1)Oc1ccc(cc1)CC2`, the IC50 in data set [1] was more than 20 µM; in data set [4], more than 20 µM; in [5], more than 40 µM.

For `CCO/N=[N+](\[O-])N1CCN(Cc2ccc3c(c2O)Oc2cccc(c2)CCc2ccc(O)c(c2)Oc2ccc(cc2)CC3)CC1`, the IC50 in [1] was more than 20 µM; in [4], more than 20 µM; in [5], more than 40 µM.

On to `O=S(=O)(c1ccccc1)c1c(OCCOc2ccc3cc2Oc2ccc(cc2)CCc2cccc(OCCOc4no[n+]([O-])c4S(=O)(=O)c4ccccc4)c2Oc2cccc(c2)CC3)no[n+]1[O-]`, for which the IC50 is more than 20 µM in [1]; 3.2 µM in data set [2]; more than 20 µM in data set [4]; 41.2 µM in data set [5]; 11.5 µM in [8]; 24.9 µM in [10]. Moreover, the results for the “Ratio IC50” value in data set [3] and in [7] were 4 and 8, respectively.

For the molecule `O=S(=O)(c1ccccc1)c1c(OC/C=C\COc2ccc3cc2Oc2ccc(cc2)CCc2cccc(OC/C=C\COc4no[n+]([O-])c4S(=O)(=O)c4ccccc4)c2Oc2cccc(c2)CC3)no[n+]1[O-]`, the figures for the IC50 in data set [2] and in data set [10] were more than 3 µM and more than 20 µM, respectively. In [7], the “Ratio IC50” value is recorded as less than 7.

With `O=S(=O)(c1ccccc1)c1c(OCCCOc2ccc3cc2Oc2ccc(cc2)CCc2cccc(OCCCOc4no[n+]([O-])c4S(=O)(=O)c4ccccc4)c2Oc2cccc(c2)CC3)no[n+]1[O-]`, the half-maximal inhibitory concentration (IC50) was more than 20 µM in [1]; 1 µM in [2]; more than 20 µM in data set [4]; 38.4 µM in data set [5]; 10.2 µM in [8]; 21 µM in [10]. Moreover, the “Ratio IC50” value is recorded as 4 in data set [3] and 21 in [7].

In the case of `COc1cccc2c1C(=O)c1c(O)c3c(c(O)c1C2=O)C[C@@](O)(C(=O)CO)C[C@@H]3O[C@H]1C[C@H](N)[C@H](O)[C@H](C)O1` [DOXORUBICIN], the 50% inhibitory concentration (IC50) in data set [2] is 32 µM; in [10] it was less than 0.025 µM. In addition, the concentration for half-maximal inhibition (IC50) at 48 h in data set [6] and in data set [9] was less than 2.5 µM each time. In addition, in data set [7], the “Ratio IC50” value is less than 0.001.

Turning to `O=S(=O)(c1ccccc1)c1c(OC/C=C\COc2cccc3c2Oc2cccc(c2)CCc2ccc(O)c(c2)Oc2ccc(cc2)CC3)no[n+]1[O-]`, the IC50 is more than 3 µM in [2], more than 40 µM in data set [5], more than 20 µM in data set [8] and more than 20 µM in data set [10]. Besides, the “Ratio IC50” value in data set [7] was less than 7.

As to `O=C(/N=c1/c[n+](-c2ccccc2)[n-]o1)Oc1ccc2cc1Oc1ccc(cc1)CCc1cccc(OC(=O)/N=c3/c[n+](-c4ccccc4)[n-]o3)c1Oc1cccc(c1)CC2`, the half-inhibitory concentration (IC50) is more than 20 µM in data set [1], more than 20 µM in data set [4] and more than 40 µM in data set [5].

For the molecule `O=S(=O)(c1ccccc1)c1c(OCCOc2cccc3c2Oc2cccc(c2)CCc2ccc(O)c(c2)Oc2ccc(cc2)CC3)no[n+]1[O-]`, the half-maximal inhibitory concentration (IC50) turned out to be 1.69 µM in data set [1]; 0.9 µM in data set [2]; 2.92 µM in data set [4]; 19.1 µM in data set [5]; 3.39 µM in data set [8]; 9.1 µM in data set [10]. In addition, the “Ratio IC50” value stood at 6 in [3] and 10 in [7]. Also, the IC50 at 48 h in data set [9] amounted to 13.7 µM.

As to `O=C(CCCCCOc1no[n+]([O-])c1S(=O)(=O)c1ccccc1)Oc1ccc2cc1Oc1ccc(cc1)CCc1cccc(OC(=O)CCCCCOc3no[n+]([O-])c3S(=O)(=O)c3ccccc3)c1Oc1cccc(c1)CC2`, the IC50 was more than 20 µM in data set [1]; more than 3 µM in data set [2]; more than 20 µM in data set [4]; more than 40 µM in [5]; more than 20 µM in data set [8]; more than 20 µM in [10]. For the same molecule, the “Ratio IC50” value in [7] was less than 7.

For the molecule `O=S(=O)(c1ccccc1)c1c(OCCOc2ccc3cc2Oc2ccc(cc2)CCc2cccc(O)c2Oc2cccc(c2)CC3)no[n+]1[O-]`, the 50% inhibitory concentration (IC50) in data set [2] was found to be 0.2 µM; in data set [4], 2.69 µM; in data set [5] it was 15.2 µM; in data set [8] it was 5.36 µM; in [10], 10.9 µM. The “Ratio IC50” value in data set [3] is 3; in data set [7], 55.

Regarding `O=C(/C=C\COc1no[n+]([O-])c1S(=O)(=O)c1ccccc1)Oc1ccc2cc1Oc1ccc(cc1)CCc1cccc(OC(=O)/C=C\COc3no[n+]([O-])c3S(=O)(=O)c3ccccc3)c1Oc1cccc(c1)CC2`, the IC50 in data set [1] is more than 20 µM; in data set [4], more than 20 µM; in data set [5], more than 40 µM.

On to `O=S(=O)(c1ccccc1)c1c(Oc2ccc(COc3cccc4c3Oc3cccc(c3)CCc3ccc(O)c(c3)Oc3ccc(cc3)CC4)cc2)no[n+]1[O-]`, for which the IC50 in [1] was more than 20 µM; in data set [2], more than 3 µM; in data set [4], more than 20 µM; in data set [5] it was more than 40 µM; in data set [10], more than 20 µM. Further, the “Ratio IC50” value in data set [7] was less than 7.

For the molecule `O=S(=O)(c1ccccc1)c1c(OCCCCCCOc2cccc3c2Oc2cccc(c2)CCc2ccc(O)c(c2)Oc2ccc(cc2)CC3)no[n+]1[O-]`, the IC50 in [1] is more than 20 µM; in data set [2], 0.37 µM; in [4] it was more than 20 µM; in data set [5], more than 40 µM; in data set [8], 6.65 µM; in data set [10], more than 20 µM. Moreover, the “Ratio IC50” value is given as more than 6 in [3] and more than 54 in data set [7]. For the same molecule, the half-maximal inhibitory concentration (IC50) at 48 h in data set [6] and in data set [9] was more than 20 µM in each case.

For `O=C(CCCOc1no[n+]([O-])c1S(=O)(=O)c1ccccc1)Oc1ccc2cc1Oc1ccc(cc1)CCc1cccc(OC(=O)CCCOc3no[n+]([O-])c3S(=O)(=O)c3ccccc3)c1Oc1cccc(c1)CC2`, the 50% inhibitory concentration (IC50) in [1] is more than 20 µM; in data set [2], 0.68 µM; in data set [4], more than 20 µM; in data set [5], 39.5 µM; in data set [8], 15.1 µM; in [10], 15.2 µM. For the same molecule, the results for the “Ratio IC50” value in data set [3] and in data set [7] were 3 and 22, respectively.

For the molecule `O=S(=O)(c1ccccc1)c1c(OCCCCCCOc2ccc3cc2Oc2ccc(cc2)CCc2cccc(OCCCCCCOc4no[n+]([O-])c4S(=O)(=O)c4ccccc4)c2Oc2cccc(c2)CC3)no[n+]1[O-]`, the 50% inhibitory concentration (IC50) in data set [1] was more than 20 µM; in data set [2], more than 3 µM; in data set [4], more than 20 µM; in [5], more than 40 µM; in data set [8] it was more than 20 µM; in [10] it was 27.8 µM. For the same molecule, the “Ratio IC50” value in data set [7] is listed as less than 9.

`O=C(/C=C\COc1no[n+]([O-])c1S(=O)(=O)c1ccccc1)Oc1cccc2c1Oc1cccc(c1)CCc1ccc(O)c(c1)Oc1ccc(cc1)CC2`: the half-inhibitory concentration (IC50) in data set [1] is 6.46 µM; in data set [2], more than 3 µM; in data set [4] it was more than 20 µM; in data set [5] it was more than 40 µM; in data set [8], more than 20 µM; in [10], 13.7 µM. Further, the “Ratio IC50” value in data set [7] was less than 5.

In the case of `O=S(=O)(c1ccccc1)c1c(OCCCCOc2ccc3cc2Oc2ccc(cc2)CCc2cccc(OCCCCOc4no[n+]([O-])c4S(=O)(=O)c4ccccc4)c2Oc2cccc(c2)CC3)no[n+]1[O-]`, the concentration for half-maximal inhibition (IC50) in data set [1] is more than 20 µM; in data set [2], more than 3 µM; in data set [4], more than 20 µM; in [5], more than 40 µM; in [8], more than 20 µM; in data set [10], more than 20 µM. The “Ratio IC50” value in data set [7] is on record as less than 7.

Turning to `O=S(=O)(c1ccccc1)c1c(OCCCOc2ccc3cc2Oc2ccc(cc2)CCc2cccc(O)c2Oc2cccc(c2)CC3)no[n+]1[O-]`, the 50% inhibitory concentration (IC50) came out at 0.24 µM in data set [2]; 1.2 µM in [4]; 33.6 µM in data set [5]; 4.79 µM in [8]; 8.5 µM in data set [10]. For the same molecule, the “Ratio IC50” value in data set [3] is 7; in [7], 35. Further, the concentration for half-maximal inhibition (IC50) at 48 h in data set [9] was less than 2.5 µM.

Consider `CO/N=[N+](\[O-])N1CCN(Cc2ccc3c(c2O)Oc2cccc(c2)CCc2ccc(O)c(c2)Oc2ccc(cc2)CC3)CC1`, for which the IC50 in [1] is more than 20 µM; in data set [4], more than 20 µM; in data set [5] it was more than 40 µM.

As for `O=[N+]([O-])OCC(COc1ccc2cc1Oc1ccc(cc1)CCc1cccc(OCC(CO[N+](=O)[O-])O[N+](=O)[O-])c1Oc1cccc(c1)CC2)O[N+](=O)[O-]` (stereo unspecified), the 50% inhibitory concentration (IC50) is more than 20 µM in data set [1]; more than 20 µM in data set [2]; more than 20 µM in data set [4]; more than 40 µM in data set [5]; more than 20 µM in data set [10].

As for `CC(=O)CCCCn1c(=O)c2c(ncn2C)n(C)c1=O` [PENTOXIFYLLINE], in data set [3], the “Ratio IC50” value is less than 0.5. Moreover, the IC50 in data set [5] was 11 µM; in data set [8], more than 20 µM.

As to `O=C(CCCOc1no[n+]([O-])c1S(=O)(=O)c1ccccc1)Oc1cccc2c1Oc1cccc(c1)CCc1ccc(O)c(c1)Oc1ccc(cc1)CC2`, the IC50 in [1] was more than 20 µM; in data set [4] it was more than 20 µM; in [5], more than 40 µM.
